In PubChem BioAssay AID2060331 (Molecular Pharmacology Branch, DTP, NCI, 2025):

Tested on: Hs578T multi-cell spheroids, viability
Assay: Anticancer human tumor Hs578T cell line growth inhibition [IpAb];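 also: drug exposure lasted 7 days before readout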
Details: for IC50: curve of first compound; for viability, T/C: stronger effect = lower value; active = viability on the fitted dose curve at most 10% of control; inactive = the rest
Procedure, shortened: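 Spheroids of 60% malignant cells, 25% HUVEC and 15% MSC were exposed to targeted agents combined with ipatasertib or abemaciclib. Doses started at or near clinical Cmax (10 microM when unknown) and fell in half-log steps.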

Cn1ncc(Cl)c1-c1cc(C(=O)NC(CN)Cc2cccc(F)c2)sc1Cl (stereo not given) + CCN1CCN(Cc2ccc(Nc3ncc(F)c(-c4cc(F)c5nc(C)n(C(C)C)c5c4)n3)nc2)CC1
1410 nM: IC50 (second compound 0.01 µM)
1330 nM: IC50 (second compound 0.0316 µM)
inactive: viability, T/C (second compound 0.01 µM, first compound 0.0316 µM) 92.1% | viability, T/C (second compound 0.01 µM, first compound 0.1 µM) 83.3% | viability, T/C (second compound 0.01 µM, first compound 0.316 µM) 67.1% | viability, T/C (second compound 0.01 µM, first compound 1 µM) 49.1% | viability, T/C (second compound 0.01 µM, first compound 3.16 µM) 46.8% | viability, T/C (second compound 0.0316 µM, first compound 0.0316 µM) 86% | viability, T/C (second compound 0.0316 µM, first compound 0.1 µM) 76.8% | viability, T/C (second compound 0.0316 µM, first compound 0.316 µM) 65.2% | viability, T/C (second compound 0.0316 µM, first compound 1 µM) 51.2% | viability, T/C (second compound 0.0316 µM, first compound 3.16 µM) 42% | viability, T/C (second compound 0.1 µM, first compound 0.0316 µM) 80.5% | viability, T/C (second compound 0.1 µM, first compound 0.1 µM) 67.5% | viability, T/C (second compound 0.1 µM, first compound 0.316 µM) 52.9% | viability, T/C (second compound 0.1 µM, first compound 1 µM) 42.5% | viability, T/C (second compound 0.1 µM, first compound 3.16 µM) 42.5% | viability, T/C (second compound 0.316 µM, first compound 0.0316 µM) 81.2% | viability, T/C (second compound 0.316 µM, first compound 0.1 µM) 72% | viability, T/C (second compound 0.316 µM, first compound 0.316 µM) 56.7% | viability, T/C (second compound 0.316 µM, first compound 1 µM) 47.6% | viability, T/C (second compound 0.316 µM, first compound 3.16 µM) 33.9% | viability, T/C (second compound 1 µM, first compound 0.0316 µM) 90% | viability, T/C (second compound 1 µM, first compound 0.1 µM) 76.6% | viability, T/C (second compound 1 µM, first compound 0.316 µM) 67.3% | viability, T/C (second compound 1 µM, first compound 1 µM) 60.1%
791 nM: IC50 (second compound 0.1 µM)
829 nM: IC50 (second compound 0.316 µM)
1210 nM: IC50 (second compound 1 µM)
active: viability, T/C (second compound 0.01 µM, first compound 10 µM) 0.26% | viability, T/C (second compound 0.0316 µM, first compound 10 µM) 0.24% | viability, T/C (second compound 0.1 µM, first compound 10 µM) 0.24% | viability, T/C (second compound 0.316 µM, first compound 10 µM) 0.21% | viability, T/C (second compound 1 µM, first compound 3.16 µM) 7.93% | viability, T/C (second compound 1 µM, first compound 10 µM) 0.46%
